This passage reports MBC and MIC results from patent US20220016200A1, “PHARMACEUTICAL COMPOSITION FOR THE TREATMENT OF CYSTIC FIBROSIS” (GALENUS G.H. AG, priority 2018, published 2022).

Where two headings read alike, the source gives them in different places. Bridge positions count the residues as written; N and C are the ends. Square brackets hold non-standard residues; d marks the D form. Peptide text beside a SMILES is read from it. * marks the point of attachment. Heptanoyl(5-Me) = CCC(C)CCCC(=O)*; Dab = NCC[C@H](N)C(=O)O

Assay in all cases: Checkerboard colistin sulphate (CS) plus teicoplanin (TP), MIC/FIC and MBC/FBC
One assay has as its system A. junii 1397597. Format: cell-based, Acinetobacter junii. The following applies: Acinetobacter junii, 1397597; A. junii; agent alone; CAMHB, 5*10^5 CFU/ml; read-out: MBC. How it is done: Checkerboard analysis to determine minimal inhibitory concentration (MIC)/fractional inhibitory concentration (FIC) and minimal bacterial concentration (MBC)/fractional bacterial concentration (FBC) values of colistin sulphate (CS) plus teicoplanin (TP) for 6 Gram-negative strains with a bacterial load 5(1-10)*10^5 CFU/ml in a cation-adjusted Mueller-Hinton broth (CAMHB). • a. Antimicrobial stock solutions were prepared using sterile distilled water • b. CS was added along the ordinate; TP was added along the abscissa to 96 well, flat bottom, polystyrene panels with no treatment. Colistin alone was tested in triplicates. • c. Serial 2-fold dilutions starting with 640 μg/ml CS and 640 μg/ml TP were made; 15 μl volume of the serial dilutions were added for each agent to the appropriate wells; final volume at 30 μl • d. For each agent tested alone an additional 15 μl media was added to the well. 30 μl were added in control wells where none of the agent was tested. The negative control well contains 150 μl media without any additions • e. From an overnight bacterial culture in tryptic soy broth, 100 μL was added to 10 mL of fresh tryptic soy broth. This was then incubated at 37° C. for 1.5 hour at 180 rpm. • f. Bacteria in 120 μl CAMHB were added to each well (end concentration 5(1-10)*10^5 CFU/ml) • g. Plates were incubated at 37° C. in an ambient air incubator for 24 h • h. Turbidity at OD600 is determined with a plate photometer • i. By using a one-time inoculator 3 μl from each well of the 96-well plate were transferred to three blood agar plates. The plates were incubated over night at 37° C. in an ambient air incubator • j. […] Determination of the fractional inhibitory concentration (FIC) index and fractional bactericidal concentration (FBC) index and characterization of antimicrobial interactions was assessed […]
(§1) Interactive categories were calculated from checkerboard analysis using MIC results from testing each agent alone and MIC results from the combination wells adjacent to the wells with growth in them […]

A further assay relates to A. nosocomialis 1461911. In kind it is cell-based, Acinetobacter nosocomialis. How it is done: (§2) Checkerboard analysis to determine minimal inhibitory concentration (MIC)/fractional inhibitory concentration (FIC) and minimal […] (MBC)/fractional […] (FBC) values of colistin sulphate (CS) plus teicoplanin (TP) for 6 Gram-negative strains with a bacterial load 5(1-10)*10^5 CFU/ml in a cation-adjusted Mueller-Hinton broth (CAMHB). • a. Antimicrobial stock solutions were prepared using sterile distilled water • b. CS was added along the ordinate; TP was added along the abscissa to 96 well, flat bottom, polystyrene panels with no treatment. Colistin alone was tested in triplicates. • c. Serial 2-fold dilutions starting with 640 μg/ml CS and 640 μg/ml TP were made; 15 μl volume of the serial dilutions were added for each agent to the appropriate wells; final volume at 30 μl • d. For each agent tested alone an additional 15 μl media was added to the well. 30 μl were added in control wells where none of the agent was tested. The negative control well contains 150 μl media without any additions • e. From an overnight bacterial culture in tryptic soy broth, 100 μL was added to 10 mL of fresh tryptic soy broth. This was then incubated at 37° C. for 1.5 hour at 180 rpm. • f. Bacteria in 120 μl CAMHB were added to each well (end concentration 5(1-10)*10^5 CFU/ml) • g. Plates were incubated at 37° C. in an ambient air incubator for 24 h • h. Turbidity at OD600 is determined with a plate photometer • i. By using a one-time inoculator 3 μl from each well of the 96-well plate were transferred to three blood agar plates. The plates were incubated over night at 37° C. in an ambient air incubator • j. MIC values are defined as lowest concentration which restricts bacterial growth to OD600 ≤0.1 • k. MBC values were determined by visual reading the lowest concentration which inhibits 99.9% of the growth of bacteria in the wells • l. Determination of the fractional inhibitory concentration (FIC) index and fractional bactericidal concentration (FBC) index and characterization of antimicrobial interactions was assessed […]
(§3) FIC calculation was carried out as: (MIC of drug A, tested in combination)/(MIC of drug A, tested alone)+(MIC of drug B, tested in combination)/(MIC of drug B, tested alone). FBC calculation was carried out just as well […]
as §1
b. Indifference; FIC/FBC>0.5 to<4.0 c. Antagonism; FIC/FBC≥4.0 b. A. nosocomialis 1461911 (IHMA), colistin resistant

In the next assay the test system is A. guillouiae 1285286. Format: cell-based, Acinetobacter guillouiae. To be noted: Acinetobacter guillouiae, agent alone, CAMHB, 5*10^5 CFU/ml. How it is done: as §2, §3, §1
b. Indifference; FIC/FBC>0.5 to<4.0 c. Antagonism; FIC/FBC≥4.0 d. A. guillouiae 1285286 (IHMA), colistin resistant

The next assay deals with S. maltophilia 1237289. Format: cell-based, Stenotrophomonas maltophilia. The following applies: agent alone, CAMHB, 5*10^5 CFU/ml; for MIC: S. maltophilia 1237289. How it is done:
as §2, with “Plates were incubated at 37° C. in an ambient air incubator for 24 h • h.” left out
as §3, §1
b. Indifference; FIC/FBC>0.5 to<4.0 c. Antagonism; FIC/FBC≥4.0 f. S. maltophilia 1237289 (IHMA), colistin resistant

In the case of `CCC(C)CCCC(=O)N[C@@H](CCN)C(=O)N[C@H](C(=O)N[C@@H](CCN)C(=O)N[C@H]1CCNC(=O)[C@H]([C@@H](C)O)NC(=O)[C@H](CCN)NC(=O)[C@H](CCN)NC(=O)[C@H](CC(C)C)NC(=O)[C@@H](CC(C)C)NC(=O)[C@H](CCN)NC1=O)[C@@H](C)O` (stereo partly drawn) [CS, colistin sulphate] ({Heptanoyl(5-Me)}-[Dab]T[Dab][Dab][Dab][dL]L[Dab][Dab]T; lactam 4-C), the MBC was determined as 8 µg/mL in the assay with A. junii 1397597; 8 µg/mL in the assay on A. nosocomialis 1461911 (Acinetobacter nosocomialis, 1461911, A. nosocomialis, agent alone, CAMHB, 5*10^5 CFU/ml, read-out: MBC); 4 µg/mL with A. guillouiae 1285286 (1285286, A. guillouiae, read-out: MBC); 8 µg/mL in the assay on S. maltophilia 1237289 (Stenotrophomonas maltophilia, S. maltophilia, second of two rows (strain number not given; by order 1237289)). Besides, the MIC in the assay on A. nosocomialis 1461911 (Acinetobacter nosocomialis, 1461911, colistin resistant A. nosocomialis strain 1461911 IHMA, as stated for the mouse model, read-out: MIC) was 4 µg/mL; in the assay with A. guillouiae 1285286 (A. guillouiae 1285286, 24 h, read-out: MIC), 2 µg/mL; in the assay on S. maltophilia 1237289 (after 48 h growth (values in brackets)) it was “(8) mg/l”; in the assay on S. maltophilia 1237289 (Stenotrophomonas maltophilia, 1237289, 24 h, 24 h, read-out: MIC), not above 0.5 µg/mL.
